Several values for one entry are separate records, joined by “and”; a condition that tells them apart may be missing. Equal entries are not always repeated. Toxic doses and inconclusive results are not listed. The calls were made as follows: active = survival T/C of 150% or more; inactive = T/C below 125% in these data. Numbered stars: 1 amine (or outer) side, 2 acyl side, 3 side chain; on linkers, the order of the positions; unused ones are H or OH. Bridge positions count the residues as written; N and C are the ends. Square brackets hold non-standard residues; d marks the D form. Peptide text beside a SMILES is read from it. ξ: configuration not given here. X15 = O=C(/C(=C/c1c[nH]c2ccccc12)N[*:1])[*:2]; X16 = CC(c1c[nH]c2ccccc12)C(N[*:1])C(=O)[*:2]; βAsp = O=C(O)[CH](CC(=O)[*:2])N[*:1]; ξLeu(3ξ-OH) = CC(C)C(O)C(N)C(=O)O; X14 = O=C(C1C(O)CCN1[*:1])[*:2]
Tested on: P388 leukemia ip, CD2F1 mice, survival T/C
Assay: NCI In Vivo Anticancer Drug Screen. Data for tumor model P388 Leukemia (intraperitoneal) in CD2F1 (CDF1) mice
Details: endpoint: median survival time, higher = longer survival
In short: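 Mice carrying the transplanted tumor received test compound or vehicle. Survival was recorded in each group, and the value is the treated-group measurement divided by that of the vehicle-treated control group.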

[1] = dose: 50.0 mg/kg/injection, schedule: Q01DX005 (ip), vehicle: Klucel (hydroxypropylcellulose) (HPC)
[2] = dose: 100.0 mg/kg/injection, schedule: Q01DX005 (ip), vehicle: Klucel (hydroxypropylcellulose) (HPC)
[3] = dose: 50.0 mg/kg/injection, schedule: Q04DX003 (ip), vehicle: saline with Tween-80
[4] = dose: 50.0 mg/kg/injection, schedule: Q01DX005 (ip), vehicle: saline with Tween-80
[5] = dose: 100.0 mg/kg/injection, schedule: Q01DX005 (ip), vehicle: saline with Tween-80
[6] = dose: 100.0 mg/kg/injection, schedule: Q04DX003 (ip), vehicle: saline with Tween-80
[7] = dose: 200.0 mg/kg/injection, schedule: Q04DX003 (ip), vehicle: saline with Tween-80
[8] = dose: 400.0 mg/kg/injection, schedule: Q04DX003 (ip), vehicle: saline with Tween-80
[9] = dose: 100.0 mg/kg/injection, schedule: Q01DX009 (ip), vehicle: saline with Tween-80
[10] = dose: 200.0 mg/kg/injection, schedule: Q01DX009 (ip), vehicle: saline with Tween-80
[11] = dose: 60.0 mg/kg/injection, schedule: Q01DX005 (ip), vehicle: saline with Tween-80
[12] = dose: 120.0 mg/kg/injection, schedule: Q01DX005 (ip), vehicle: saline with Tween-80
[13] = dose: 240.0 mg/kg/injection, schedule: Q01DX005 (ip), vehicle: saline with Tween-80
[14] = dose: 200.0 mg/kg/injection, schedule: Q01DX005 (ip), vehicle: Klucel (hydroxypropylcellulose) (HPC)
[15] = dose: 50.0 mg/kg/injection, schedule: Q01DX009 (ip), vehicle: Klucel (hydroxypropylcellulose) (HPC)
[16] = dose: 100.0 mg/kg/injection, schedule: Q01DX009 (ip), vehicle: Klucel (hydroxypropylcellulose) (HPC)
[17] = dose: 200.0 mg/kg/injection, schedule: Q01DX009 (ip), vehicle: Klucel (hydroxypropylcellulose) (HPC)
[18] = dose: 400.0 mg/kg/injection, schedule: Q01DX009 (ip), vehicle: Klucel (hydroxypropylcellulose) (HPC)

Measured: T/C

O=C1c2ccccc2C(=O)N1OCc1ccc(-c2ccccc2)cc1
inactive: [1] 96 % of control | [2] 93 % of control

CCC1CCCCN1C(=S)N/N=C(\C)c1ccccn1 (stereo not drawn)
inactive: dose: 12.5 mg/kg/injection, schedule: Q04DX003 (ip), vehicle: saline with Tween-80 106 % of control | dose: 25.0 mg/kg/injection, schedule: Q04DX003 (ip), vehicle: saline with Tween-80 108 % of control and 115 % of control | [3] 115 % of control

OC(CCl)COn1nnc2ccccc21 (stereo not drawn)
inactive: dose: 25.0 mg/kg/injection, schedule: Q01DX005 (ip), vehicle: saline with Tween-80 100 % of control | [4] 102 % of control | [5] 100 % of control | [6] 98 % of control | [7] 99 % of control | [8] 94 % of control

CCCCCCCCCCCCCCCC(=O)O
inactive: dose: 50.0 mg/kg/injection, schedule: Q01DX009 (ip), vehicle: saline with Tween-80 107 % of control | [9] 102 % of control | [10] 102 % of control

CN(C)C1C(O)C2Oc3c(cc(O)c4c3C(=O)c3cc5c(c(O)c3C4=O)CCC(C)(O)C5)C(C)(O2)C1O (stereo not drawn)
inactive: dose: 12.5 mg/kg/injection, schedule: Q04DX003 (ip), vehicle: other 112 % of control | dose: 25.0 mg/kg/injection, schedule: Q04DX003 (ip), vehicle: other 113 % of control | dose: 50.0 mg/kg/injection, schedule: Q04DX003 (ip), vehicle: other 118 % of control | dose: 100.0 mg/kg/injection, schedule: Q04DX003 (ip), vehicle: other 122 % of control

CNC(=O)Nc1cccc(C2(C)OCCS2)c1 (stereo not drawn)
inactive: [11] 100 % of control | [12] 94 % of control | [13] 99 % of control

CCOC(=O)CCC1=C(C)c2cc3[n-]c(cc4nc(cc5[n-]c(cc1n2)c(CCC(=O)OCC)c5C)C=C4C)cc3C.[Cu+2]
inactive: [1] 101 % of control | [2] 97 % of control | [14] 100 % of control

CN(C)CCC(C#N)(CCC1CCCCC1)c1ccccc1 (stereo not drawn)
inactive: dose: 10.0 mg/kg/injection, schedule: Q01DX009 (ip), vehicle: saline 103 % of control | dose: 20.0 mg/kg/injection, schedule: Q01DX009 (ip), vehicle: saline 104 % of control | dose: 40.0 mg/kg/injection, schedule: Q01DX009 (ip), vehicle: saline 103 % of control

O=C1C2CCCN2C(=S)N1c1ccc([N+](=O)[O-])cc1 (stereo not drawn)
inactive: [1] 100 % of control | [2] 100 % of control | [14] 99 % of control

C=CCSc1nc(N)nc(Nc2ccccc2)n1
inactive: dose: 100.0 mg/kg/injection, schedule: Q01DX001 (ip), vehicle: saline with Tween-80 98 % of control | dose: 200.0 mg/kg/injection, schedule: Q01DX001 (ip), vehicle: saline with Tween-80 92 % of control | dose: 400.0 mg/kg/injection, schedule: Q01DX001 (ip), vehicle: saline with Tween-80 87 % of control

[CH2-]N(CC)CC.[CH2-]N(CC)CC.[Rh].[Rh].[Rh].[c-]1[c-][c-][cH-][c-]1.[c-]1[c-][c-][cH-][c-]1.[c-]1[c-][c-][cH-][c-]1
inactive: dose: 6.25 mg/kg/injection, schedule: Q04DX002 (ip), vehicle: saline 108 % of control and 96 % of control | dose: 12.5 mg/kg/injection, schedule: Q04DX002 (ip), vehicle: saline 113 % of control and 115 % of control and 91 % of control | dose: 25.0 mg/kg/injection, schedule: Q04DX002 (ip), vehicle: saline 99 % of control and 103 % of control and 113 % of control | dose: 50.0 mg/kg/injection, schedule: Q04DX002 (ip), vehicle: saline 104 % of control and 91 % of control

CCOC(=O)NC(=S)Nc1ncn[nH]1
inactive: [3] 100 % of control | [6] 95 % of control | [7] 100 % of control | [8] 99 % of control

CC=C/C=C/[C@@H]1O[C@](O)([C@H](CC)C(=O)NC/C=C/C=C(\C)[C@@H](OC)[C@@H](C)[C@@H]2O[C@H](/C=C/C=C/C=C(\C)C(=O)c3c(O)cc[nH]c3=O)[C@H](O)[C@@H]2O)[C@H](O)[C@H](O)C1(C)C
inactive: dose: 4.5 mg/kg/injection, schedule: Q01DX009 (ip), vehicle: Klucel (hydroxypropylcellulose) (HPC) 108 % of control | dose: 9.0 mg/kg/injection, schedule: Q01DX009 (ip), vehicle: Klucel (hydroxypropylcellulose) (HPC) 108 % of control | dose: 18.0 mg/kg/injection, schedule: Q01DX009 (ip), vehicle: Klucel (hydroxypropylcellulose) (HPC) 104 % of control | dose: 36.0 mg/kg/injection, schedule: Q01DX009 (ip), vehicle: Klucel (hydroxypropylcellulose) (HPC) 103 % of control | [15] 98 % of control | [16] 99 % of control | [17] 99 % of control | [18] 102 % of control

CCc1c(NCCO)c(C(=O)NCCO)c2nc3ccccc3n2c1NCCO
inactive: [11] 101 % of control | [12] 99 % of control | [13] 99 % of control

Cc1ccc(C(C)C)c(OC(=O)Nc2ccc(Cl)cc2)c1
inactive: [15] 100 % of control | [16] 87 % of control | [17] 95 % of control | [18] 92 % of control

CCS(=O)(=O)OCCF
inactive: dose: 0.78 mg/kg/injection, schedule: Q01DX009 (ip), vehicle: saline with Tween-80 106 % of control | dose: 1.56 mg/kg/injection, schedule: Q01DX009 (ip), vehicle: saline with Tween-80 111 % of control | dose: 3.12 mg/kg/injection, schedule: Q01DX009 (ip), vehicle: saline with Tween-80 106 % of control and 91 % of control

Cc1ccc(C(=O)NC2c3ccccc3Oc3ccccc32)cc1
inactive: [4] 90 % of control | [5] 86 % of control

CC(C)(C)c1cc(C(c2ccccc2)(c2ccccc2)c2ccccc2)cc2c1[O][Sb]([c]1ccccc1)([c]1ccccc1)([c]1ccccc1)[NH]2
inactive: [15] 102 % of control | [16] 103 % of control | [17] 116 % of control

Brc1ccc2c(NCCCCCCCCNc3c4ccccc4nc4cc(Br)ccc34)c3ccccc3nc2c1
inactive: dose: 0.32 mg/kg/injection, schedule: Q01DX009 (ip), vehicle: other 100 % of control | dose: 0.63 mg/kg/injection, schedule: Q01DX009 (ip), vehicle: other 99 % of control | dose: 1.25 mg/kg/injection, schedule: Q01DX009 (ip), vehicle: other 107 % of control | dose: 2.5 mg/kg/injection, schedule: Q01DX009 (ip), vehicle: other 109 % of control | dose: 5.0 mg/kg/injection, schedule: Q01DX009 (ip), vehicle: other 96 % of control | dose: 10.0 mg/kg/injection, schedule: Q01DX009 (ip), vehicle: other 101 % of control

CCOP(O)(=S)OCC.[Gd]
inactive: dose: 100.0 mg/kg/injection, schedule: Q04DX003 (ip), vehicle: Klucel (hydroxypropylcellulose) (HPC) 90 % of control | dose: 200.0 mg/kg/injection, schedule: Q04DX003 (ip), vehicle: Klucel (hydroxypropylcellulose) (HPC) 90 % of control | dose: 400.0 mg/kg/injection, schedule: Q04DX003 (ip), vehicle: Klucel (hydroxypropylcellulose) (HPC) 90 % of control

Nc1ccc2ccc(N)nc2c1
inactive: dose: 50.0 mg/kg/injection, schedule: Q01DX009 (ip), vehicle: acid diluted with saline 105 % of control

CCC1(CC2CCCN(C)C2)c2ccccc2Sc2ccccc21 (stereo not drawn)
inactive: dose: 12.5 mg/kg/injection, schedule: Q01DX005 (ip), vehicle: saline 98 % of control | dose: 25.0 mg/kg/injection, schedule: Q01DX005 (ip), vehicle: saline 98 % of control | dose: 50.0 mg/kg/injection, schedule: Q01DX005 (ip), vehicle: saline 91 % of control

CC1NC(=O)C(C(C)O)NC(=O)C(NC(=O)C(CO)NC(=O)CC(N)C(=O)O)C(C)OC(=O)C2C(O)CCN2C(=O)C(C(O)C(C)C)NC(=O)C(C(C)c2c[nH]c3ccccc23)NC(=O)/C(=C/c2c[nH]c3ccccc23)NC(=O)C2C(O)CCN2C(=O)CNC1=O (stereo not drawn) (βAsp-STTAG[X14][X15][X16][ξLeu(3ξ-OH)][X14]; ester 2-C; configuration not given here)
inactive: [9] 105 % of control | [10] 89 % of control | dose: 400.0 mg/kg/injection, schedule: Q01DX009 (ip), vehicle: saline with Tween-80 91 % of control

NNc1ncnc2c1ccn2C1OC(CO)C(O)C1O (stereo not drawn)
inactive: dose: 6.25 mg/kg/injection, schedule: Q01DX009 (ip), vehicle: saline with Tween-80 108 % of control | dose: 12.5 mg/kg/injection, schedule: Q01DX009 (ip), vehicle: saline with Tween-80 113 % of control | dose: 37.5 mg/kg/injection, schedule: Q01DX009 (ip), vehicle: saline with Tween-80 118 % of control

Reference: PubChem BioAssay AID330 (DTP/NCI, 2004)
